Data set [1] relates to IMQ-induced, psoriasis-like skin inflammation. The format is in vivo, C57BL/6 mice. Conditions: for penetration of the skin: mouse, in vivo. On the procedure: Western blot analysis was performed as described before. The following antibodies were used and purchased from Cell Signaling: anti-IκBζ (9244), anti-phospho-STAT3 at Tyr705 (9145), anti-phospho-STAT3 at Ser727 (9134), anti-STAT3 (12640), anti-p65 (8242), anti-EZH2 (5246), anti-pRB (phospho-RB at Ser807/811; 8516), anti-FoxM1 (5436), anti-H3 (4499), anti-CDK4 (12790), anti-CDK6 (13331), anti-CDK9 (2316), anti-cyclin D1 (2978), anti-cyclin D2 (3741), anti-cyclin D3 (2936), anti-cJUN (9165), anti-H3K27me3 (9733), anti-GAPDH (2118), anti-H3 (9715) and anti-β-actin (3700). Anti-β-Gal (sc377257) and anti-GFP (sc9996) were obtained from Santa Cruz Biotechnology. Anti-pEZH2 at T345 (61242) anti-pEZH2 at T487 (12820) were purchased from Active Motif and anti-pan-methyl-lysine antibody was purchased from Enzo (ADI-KAP-TF121-E). For detection of mouse IκB, a self-made antibody raised against peptides […] (SEQ ID NO:3) and […] (SEQ ID NO:4) was applied.
Gene expression analyses were performed as described. Relative gene expression was analyzed using self-designed primers ordered at Metabion (not shown). Relative mRNA levels were calculated by normalization to the human reference gene RPL37A or the mouse reference gene Actin using the 2-ΔΔCt method.
Experiments were conducted in accordance with the German law guide-lines of animal care. Ears of female C57BL/6 mice (8-12 weeks old) were topically treated for 6 consecutive days with 5 mg Aldara cream (containing 5% imiquimod, 3M Pharmaceutical) and 0.02 mg of abemaciclib (in 10 μL ethanol), 0.05 mg CPI-169 (in 10 μL ethanol) or vehicle control. At day 7, mice were sacrificed and analysed. For IL-36α-mediated psoriasis induction, ears of male C57BL/6 mice (8-12 weeks old) were treated by intradermal injections using 1 μg murine IL-36α (aa 8-160, R&D) or PBS control for 5 consecutive days. For application of the vehicle control, abemaciclib (0.02 mg) or CPI-169 (0.05 mg), substances were mixed with Miglyol 812 (Carl Roth) in a ratio of 1:4. Inhibitors were topically applicated 6 h before intradermal injections of IL-36α or PBS were applied. Mice were sacrificed and analysed at day 6.
Sample preparation was performed as described. The following anti-mouse antibodies from BioLegend were used: anti-CD45 FITC (103107), anti-CD11b PacificBlue (101223), anti-Ly6G PE (127607), anti-F4/80 APC (123115), anti-CD11c Pacific Blue (117322), anti-MHC-II APC (107613), anti-CD172a PE (144011) and anti-Silec-H PE (129605). Anti-PDCA-1 APC (17-2092-80) and anti-αβTCR PE (HM3628) were purchased from Invitrogen, and anti-γδ-TCR APC (17-5711-82) from Sigma. Data was acquired on a LSRII flow cytometer (Becton Dickson).
Ear sections from mice were fixed in 10% formalin (Carl Roth) and subsequently embedded in paraffin. 5-μm sections were prepared and incubated with the following antibodies from Cell Signaling: pSTAT3 (9145), pRB (8516) and H3K27me3 (9733). For staining of human skin samples, EZH2 antibody (Cell Signaling, 5246) was used. Antigen retrieval was performed in 1 mM EDTA pH 8.0 for pSTAT3, and 10 mM citrate buffer pH 6.0+0.5% Triton X-100 for EZH2, H3K27me3 and pRB. After incubation with peroxidase-coupled secondary antibodies, sections were stained with DAB substrate.

For data set [2], the system named is IL-36-triggered psoriasis-like dermatitis. As to the kind of experiment: IL-36α-mediated psoriasis-like dermatitis mouse model, topical treatment of ears. The format is in vivo, C57BL/6 mice. On the procedure: Western blot analysis was performed as described before. The following antibodies were used and purchased from Cell Signaling: anti-IκBζ (9244), anti-phospho-STAT3 at […] (9145), anti-phospho-STAT3 at […] (9134), anti-STAT3 (12640), anti-p65 (8242), anti-EZH2 (5246), anti-pRB (phospho-RB at […]/811; 8516), anti-FoxM1 (5436), anti-H3 (4499), anti-CDK4 (12790), anti-CDK6 (13331), anti-CDK9 (2316), anti-cyclin D1 (2978), anti-cyclin D2 (3741), anti-cyclin D3 (2936), anti-cJUN (9165), anti-H3K27me3 (9733), anti-GAPDH (2118), anti-H3 (9715) and anti-β-actin (3700). Anti-β-Gal (sc377257) and anti-GFP (sc9996) were obtained from Santa Cruz Biotechnology. Anti-pEZH2 at […] (61242) anti-pEZH2 at […] (12820) were purchased from Active Motif and anti-pan-methyl-lysine antibody was purchased from Enzo ([…]). For detection of mouse IκB, a self-made antibody raised against peptides […] NO:3) and […] NO:4) was applied. Gene expression analyses were performed as described. Relative gene expression was analyzed using self-designed primers ordered at Metabion (not shown). Relative mRNA levels were calculated by normalization to the human reference gene RPL37A or the mouse reference gene Actin using the 2-ΔΔCt method. Experiments were conducted in accordance with the German law guide-lines of animal care. Ears of female C57BL/6 mice (8-12 weeks old) were topically treated for 6 consecutive days with 5 mg Aldara cream (containing 5% imiquimod, 3M Pharmaceutical) and 0.02 mg of abemaciclib (in 10 μL ethanol), 0.05 mg CPI-169 (in 10 μL ethanol) or vehicle control. At day 7, mice were sacrificed and analysed. For IL-36α-mediated psoriasis induction, ears of male C57BL/6 mice (8-12 weeks old) were treated by intradermal injections using 1 μg murine IL-36α (aa 8-160, R&D) or PBS control for 5 consecutive days. For application of the vehicle control, abemaciclib (0.02 mg) or CPI-169 (0.05 mg), substances were mixed with Miglyol 812 (Carl Roth) in a ratio of 1:4. Inhibitors were topically applicated 6 h before intradermal injections of IL-36α or PBS were applied. Mice were sacrificed and analysed at day 6. […]

The test system of data set [3] is TH1 cytokines and tumor-infiltrating T cells. Conditions: experimental cancer model, Deng et al.; cited from earlier work.
Where [4] appears, read: flow cytometry of IMQ-treated mouse ears, day 7.

For the molecule `CCS(=O)(=O)N1CCC([C@@H](C)n2c(C)c(C(=O)NCc3c(OC)cc(C)[nH]c3=O)c3ccccc32)CC1` [CPI-169], the “IκBζ expression in the skin, phosphorylation of EZH2 at T345 and of STAT3 at Y705” value in data set [1] (IMQ-treated mouse skin, day 7) was “completely abrogated”. Besides, in data set [1] (IMQ-treated skin, day 7), the “expression of IκBζ target genes (Cxcl2, Cxcl5) and DC- and T-cell-derived cytokines (Il17a, Il23a)” value is given as “significantly downregulated”. Moreover, the “H3K27me3 expression in the epidermis (EZH2 inhibition)” value in data set [1] (ear skin sections of treated mice, FIG. 10c) is “loss”. Also, in data set [1] (setting [4]), the “immune cell infiltration (neutrophils, macrophages and T cells)” value is “fully abrogated”; the “number of infiltrating plasmacytoid (pDC) and myeloid dendritic cells (mDC)” value is given as “significantly suppressed”. Further, the “penetration of the skin” value in data set [1] is reported as “effectively penetrated the skin”. Besides, the “IMQ-induced, psoriasis-like skin inflammation (ear thickening, keratinocyte hyperproliferation, immune cell infiltration)” value in data set [1] (topical, daily 6 days, abemaciclib 0.02 mg, CPI-169 0.05 mg per ear) is “completely suppressed”. The “IκBζ target gene expression and key cytokine expression (Il17a, Il23a)” value in data set [2] (IL-36α-treated skin, FIG. 12g) is recorded as “effectively blocked”. In data set [2] (intradermal IL-36α 5 days, topical inhibitor, day 6), the “keratinocyte hyperproliferation and immune cell infiltration” value is “effectively blocked”. Besides, the “IL-36-mediated expression of IκBζ, phosphorylation of EZH2 at T345 and activation of STAT3 (pSTAT3 Y705)” value in data set [2] (skin of treated mouse ears, day 6) was “suppressed”.
`CCN1CCN(Cc2ccc(Nc3ncc(F)c(-c4cc(F)c5nc(C)n(C(C)C)c5c4)n3)nc2)CC1` [abemaciclib]: the “penetration of the skin” value in data set [1] is listed as “effectively penetrated the skin”.
Take `CN1CCN(c2ccc(Nc3ncc4cc5n(c4n3)C3(CCCCC3)CNC5=O)nc2)CC1` [trilaciclib]: the “levels of TH1 cytokines and tumor-infiltrating T cells” value in data set [3] is given as “increased”.

(Values after patent US20220280511A1, “CDK4/6 INHIBITORS FOR THE TREATMENT OF PSORIASIS” (EBERHARD KARLS UNIVERSITAET TUEBINGEN MEDIZINISCHE FAKULTAET, priority 2019, published 2022).)
